Laboratory results as given in ChEMBL document CHEMBL1150531, “Acetylcholinesterase inhibition by fused dihydroquinazoline compounds” (Bioorg Med Chem Lett, 1996).

Assays:
Acetylcholinesterase [1] = target: T1, Acetylcholinesterase (Rattus norvegicus, UniProt P37136)
T1 sequence (P37136 whole entry): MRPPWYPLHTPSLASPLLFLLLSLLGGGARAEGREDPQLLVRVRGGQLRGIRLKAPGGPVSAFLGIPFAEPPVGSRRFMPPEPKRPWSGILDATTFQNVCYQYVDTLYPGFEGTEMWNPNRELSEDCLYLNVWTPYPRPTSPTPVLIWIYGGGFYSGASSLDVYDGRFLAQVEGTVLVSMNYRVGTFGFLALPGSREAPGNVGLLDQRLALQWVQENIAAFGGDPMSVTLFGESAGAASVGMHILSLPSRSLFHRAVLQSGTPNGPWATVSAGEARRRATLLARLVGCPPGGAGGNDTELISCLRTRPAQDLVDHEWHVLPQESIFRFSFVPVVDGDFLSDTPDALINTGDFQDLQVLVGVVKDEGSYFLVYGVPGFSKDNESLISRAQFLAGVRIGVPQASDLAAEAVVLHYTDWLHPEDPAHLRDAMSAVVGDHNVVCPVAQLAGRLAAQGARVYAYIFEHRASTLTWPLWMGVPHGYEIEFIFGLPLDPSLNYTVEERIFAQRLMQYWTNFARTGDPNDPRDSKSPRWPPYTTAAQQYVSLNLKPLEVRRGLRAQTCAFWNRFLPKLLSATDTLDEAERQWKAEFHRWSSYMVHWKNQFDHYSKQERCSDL
Description: Inhibitory activity against acetylcholinesterase in rat brain

Acetylcholinesterase [2] = target: Acetylcholinesterase (Homo sapiens, UniProt P22303)
Sequence of Acetylcholinesterase (Homo sapiens, UniProt P22303) (P22303 whole entry): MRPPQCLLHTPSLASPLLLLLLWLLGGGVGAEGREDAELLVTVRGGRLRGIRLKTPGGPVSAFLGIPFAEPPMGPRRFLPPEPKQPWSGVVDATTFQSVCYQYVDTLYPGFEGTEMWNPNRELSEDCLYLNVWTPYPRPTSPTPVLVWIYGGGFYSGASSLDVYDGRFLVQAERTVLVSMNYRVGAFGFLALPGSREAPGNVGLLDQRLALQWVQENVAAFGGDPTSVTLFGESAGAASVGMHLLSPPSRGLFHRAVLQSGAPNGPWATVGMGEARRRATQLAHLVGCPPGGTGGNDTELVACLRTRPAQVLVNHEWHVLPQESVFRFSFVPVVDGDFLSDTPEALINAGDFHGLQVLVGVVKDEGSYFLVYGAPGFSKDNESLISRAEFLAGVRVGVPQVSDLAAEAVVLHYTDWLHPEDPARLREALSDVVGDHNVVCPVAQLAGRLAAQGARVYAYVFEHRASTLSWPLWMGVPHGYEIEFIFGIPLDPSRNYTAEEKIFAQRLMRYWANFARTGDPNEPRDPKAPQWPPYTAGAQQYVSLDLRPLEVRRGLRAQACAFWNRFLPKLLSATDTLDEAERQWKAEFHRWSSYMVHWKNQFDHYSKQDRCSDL
Description: Inhibitory activity against acetylcholinesterase in human RBC

O=c1c2ccc(Cl)cc2nc2n1CCCCC2
IC50 (Acetylcholinesterase [1]): > 100 µM | IC50 (Acetylcholinesterase [2]): > 100 µM

c1ccc2c(c1)CN1CCCC1=N2
IC50 (Acetylcholinesterase [1]): 18 µM | IC50 (Acetylcholinesterase [2]): 3.72 µM

S=c1c2ccc(Cl)cc2nc2n1CCCCC2
IC50 (Acetylcholinesterase [1]): > 100 µM | IC50 (Acetylcholinesterase [2]): > 100 µM

c1ccc2c(c1)CN1CCCCC1=N2
IC50 (Acetylcholinesterase [1]): > 100 µM | IC50 (Acetylcholinesterase [2]): 3.66 µM

CCCCCCCNC(=O)Oc1ccc2c(c1)[C@]1(C)CCN(C)[C@@H]1N2C [EPTASTIGMINE]
IC50 (Acetylcholinesterase [1]): 0.6 µM | IC50 (Acetylcholinesterase [2]): 0.125 µM

c1ccc2c(c1)CN1CCCCCCCC1=N2
IC50 (Acetylcholinesterase [1]): > 100 µM | IC50 (Acetylcholinesterase [2]): 13.5 µM

N=c1c2ccc(Cl)cc2nc2n1CCCCC2
IC50 (Acetylcholinesterase [1]): 35.9 µM

c1ccc2c(c1)CN1CCCCCC1=N2
IC50 (Acetylcholinesterase [1]): 15 µM | IC50 (Acetylcholinesterase [2]): 3.76 µM

Clc1ccc2c(c1)CN1CCCCCC1=N2
IC50 (Acetylcholinesterase [1]): 9.3 µM

Clc1cccc2c1CN1CCCCCC1=N2
IC50 (Acetylcholinesterase [1]): 4.75 µM

C/C=C1\[C@H]2C=C(C)C[C@]1(N)c1ccc(=O)[nH]c1C2 [HUPERZINE A]
IC50 (Acetylcholinesterase [1]): 0.094 µM

c1ccc2c(c1)CN1CCCCCCC1=N2
IC50 (Acetylcholinesterase [1]): 100 µM | IC50 (Acetylcholinesterase [2]): 9.2 µM
